{
  "source": "patent US20060211751A1",
  "about": "“Zolmitriptan crystal forms” (priority 2004, published 2006)",
  "assay_type_in_all_cases": "physicochemical",
  "key": {"[1]": {"experiment": "Polymorphic stability when maintained at room temperature"}, "[2]": {"experiment": "Transformation by pressing (crystal form before and after pressing)", "settings": "for Crystal Form after pressing: 100 mg pressed with approximately 1300 psi during 2 minutes"}, "[3]": {"experiment": "Transformation by slurry in other solvents (n-hexane, toluene, water) and drying, form determined by XRD", "description": "Similarly to example 6 Zolmitriptan samples were slurried from other solvents or solvent systems after dissolution and precipitation from a specific solvent."}, "[4]": {"experiment": "Transformation by heating and slurry in acetone-water mixture (20:80), form determined by XRD", "procedure": "A sample of zolmitriptan (6 g) was placed in a glass flask with solvent and heated to reflux until the zolmitriptan dissolved. The zolmitriptan was cooled to room temperature while stirring, and left at 4° C. overnight. The mixture was filtered and the solid obtained was divided in half. One half of the solid was labeled “wet” and the other half was dried in a vacuum oven at about 60° C.-70° C. overnight and labeled as “dried.”\nOne third of the wet portion of each sample was separated for XRD, and marked as “_w” . One third of the dried portion of each sample was separated for XRD, and marked as “_d” . For example, “1w” refers to the wet portion of sample 1 analyzed by XRD before slurry in acetone/water, and “1d” refers to the dried portion of sample 1 analyzed by XRD before slurry in acetone/water.\nThe remaining two-thirds of the wet sample was weighed, placed in a glass flask containing 10 v/w of acetone:water (20:80), stirred for about 30 minutes at room temperature, and left at about 4° C. overnight. The mixture was filtered and the solid obtained was divided in half. One half was labeled “_w-ac-w.” The other half was dried in a vacuum oven at about 60° C.-70° C. overnight, and labeled “_w-ac-d.” For example, “1w-ac-w” refers to the portion of the wet sample resulting from slurry in acetone/water, while “1w-ac-d” refers to the portion of the wet sample resulting from slurry in acetone/water that was dried.\nLikewise, the remaining two-thirds of the dry sample was weighed, placed in a glass flask containing 10 v/w of acetone:water (20:80), stirred for about 30 minutes at room temperature, and left at about 4° C. overnight. The mixture was filtered and the solid obtained was divided in half. One half was labeled “_d-ac-w.” The other half was dried in a vacuum oven at about 60° C.-70° C. overnight, and labeled “_d-ac-d.” For example, “1d-ac-w” refers to the portion of the dry sample resulting from slurry in acetone/water, while “1d-ac-d” refers to the portion of the dry sample resulting from slurry in acetone/water that was then dried."}, "[5]": {"settings": "immersed in 10 v/w n-Hexane, filtered, sucked ½ hour on Buchner"}},
  "data": [
    {"smiles": "CN(C)CCc1c[nH]c2ccc(C[C@H]3COC(=O)N3)cc12", "note": "[Form D]", "values": [
      {"measurement": "polymorphic stability (conversion to Form A)", "setting": "[1]", "value": "do not convert to Form A"},
      {"measurement": "Crystal Form after pressing", "setting": "[2]", "value": "Form D"},
      {"measurement": "transformation to other crystal form on pressing", "setting": "[2]", "value": "not transform to other crystal form"}
    ]},
    {"smiles": "CN(C)CCc1c[nH]c2ccc(C[C@H]3COC(=O)N3)cc12", "note": "[Form E]", "values": [
      {"measurement": "XRD sample (form after treatment)", "setting": "[3]; Toluene, dried 63 °C under reduced pressure, listed as E", "value": "Form K"},
      {"measurement": "XRD sample (form after treatment)", "setting": "[3]; immersed in 10 v/w Water, filtered, sucked ½ hour on Buchner, listed as E", "value": "Form A"},
      {"measurement": "XRD sample (form after treatment)", "setting": "[3]; [5]", "value": "Form D"},
      {"measurement": "XRD sample (form after treatment)", "setting": "[3]; n-Hexane, dried 63 °C under reduced pressure, listed as E", "value": "Form A + ˜30% D"}
    ]},
    {"smiles": "CN(C)CCc1c[nH]c2ccc(C[C@H]3COC(=O)N3)cc12", "note": "[Form F]", "values": [
      {"measurement": "Crystal Form after pressing", "setting": "[2]", "value": "Form F"},
      {"measurement": "transformation to other crystal form on pressing", "setting": "[2]", "value": "not transform to other crystal form"}
    ]},
    {"smiles": "CN(C)CCc1c[nH]c2ccc(C[C@H]3COC(=O)N3)cc12", "note": "[Form H]", "values": [
      {"measurement": "polymorphic stability (conversion to Form A)", "setting": "[1]", "value": "do not convert to Form A"},
      {"measurement": "Crystal Form after pressing", "setting": "[2]", "value": "Form H"},
      {"measurement": "transformation to other crystal form on pressing", "setting": "[2]", "value": "not transform to other crystal form"}
    ]},
    {"smiles": "CN(C)CCc1c[nH]c2ccc(C[C@H]3COC(=O)N3)cc12", "note": "[Form J]", "values": [
      {"measurement": "polymorphic stability (conversion to Form A)", "setting": "[1]", "value": "do not convert to Form A"},
      {"measurement": "Crystal Form after pressing", "setting": "[2]", "value": "Form J"},
      {"measurement": "transformation to other crystal form on pressing", "setting": "[2]", "value": "not transform to other crystal form"}
    ]},
    {"smiles": "CN(C)CCc1c[nH]c2ccc(C[C@H]3COC(=O)N3)cc12", "note": "[Form M]", "values": [
      {"measurement": "Crystal Form after pressing", "setting": "[2]", "value": "Form M"},
      {"measurement": "transformation to other crystal form on pressing", "setting": "[2]", "value": "not transform to other crystal form"}
    ]},
    {"smiles": "CN(C)CCc1c[nH]c2ccc(C[C@H]3COC(=O)N3)cc12", "note": "[Form O]", "values": [
      {"measurement": "Crystal Form after pressing", "setting": "[2]", "value": "Form O"},
      {"measurement": "transformation to other crystal form on pressing", "setting": "[2]", "value": "not transform to other crystal form"}
    ]},
    {"smiles": "CN(C)CCc1c[nH]c2ccc(C[C@H]3COC(=O)N3)cc12", "note": "[Form P]", "values": [
      {"measurement": "polymorphic stability (conversion to Form A)", "setting": "[1]", "value": "do not convert to Form A"},
      {"measurement": "Crystal Form after pressing", "setting": "[2]", "value": "Form P"},
      {"measurement": "transformation to other crystal form on pressing", "setting": "[2]", "value": "not transform to other crystal form"}
    ]},
    {"smiles": "CN(C)CCc1c[nH]c2ccc(C[C@H]3COC(=O)N3)cc12", "note": "[Form R]", "values": [
      {"measurement": "XRD sample (form after treatment)", "setting": "[3]; Water, dried 63 °C under reduced pressure", "value": "Form A"},
      {"measurement": "XRD sample (form after treatment)", "setting": "[3]; immersed in 10 v/w Toluene, filtered, sucked ½ hour on Buchner", "value": "Form K"},
      {"measurement": "XRD sample (form after treatment)", "setting": "[3]; immersed in 10 v/w Water, filtered, sucked ½ hour on Buchner", "value": "Form A"},
      {"measurement": "XRD sample (form after treatment)", "setting": "[3]; [5]", "value": "Form D"},
      {"measurement": "XRD sample (form after treatment)", "setting": "[3]; n-Hexane, dried 63 °C under reduced pressure, listed as R", "value": "Essent.Am D"}
    ]},
    {"smiles": "CN(C)CCc1c[nH]c2ccc(C[C@H]3COC(=O)N3)cc12", "note": "[Form T]", "values": [
      {"measurement": "Crystal Form after pressing", "setting": "[2]", "value": "Form T"},
      {"measurement": "transformation to other crystal form on pressing", "setting": "[2]", "value": "not transform to other crystal form"}
    ]},
    {"smiles": "CN(C)CCc1c[nH]c2ccc(C[C@H]3COC(=O)N3)cc12", "note": "[Sample 1]", "values": [
      {"measurement": "Resulting Crystal Form", "setting": "[4]; _d-ac-d: dried sample slurried in acetone:water (20:80), then dried in vacuum oven 60-70 °C overnight", "value": "Form A"},
      {"measurement": "Resulting Crystal Form", "setting": "[4]; _w-ac-w: wet sample slurried in 10 v/w acetone:water (20:80), 30 min room temperature, 4 °C overnight, filtered, not dried, listed as 1w-ac-w", "value": "Form A"},
      {"measurement": "Resulting Crystal Form", "setting": "[4]; _w: wet portion after crystallization, before slurry in acetone/water, listed as 1w", "value": "Form A"}
    ]},
    {"smiles": "CN(C)CCc1c[nH]c2ccc(C[C@H]3COC(=O)N3)cc12", "note": "[Sample 2]", "values": [
      {"measurement": "Resulting Crystal Form", "setting": "[4]; _d-ac-w: dried sample slurried in 10 v/w acetone:water (20:80), 30 min room temperature, 4 °C overnight, filtered, not dried", "value": "Form A"},
      {"measurement": "Resulting Crystal Form", "setting": "[4]; _d: portion dried in vacuum oven 60-70 °C overnight, before slurry in acetone/water", "value": "Form A"},
      {"measurement": "Resulting Crystal Form", "setting": "[4]; _w-ac-d: wet sample slurried in acetone:water (20:80), then dried in vacuum oven 60-70 °C overnight", "value": "Form A"},
      {"measurement": "Resulting Crystal Form", "setting": "[4]; _w-ac-w: wet sample slurried in 10 v/w acetone:water (20:80), 30 min room temperature, 4 °C overnight, filtered, not dried, listed as 2w-ac-w", "value": "Form A"},
      {"measurement": "Resulting Crystal Form", "setting": "[4]; _w: wet portion after crystallization, before slurry in acetone/water, listed as 2w", "value": "Form Q"}
    ]},
    {"smiles": "CN(C)CCc1c[nH]c2ccc(C[C@H]3COC(=O)N3)cc12", "note": "[Sample 3]", "values": [
      {"measurement": "Resulting Crystal Form", "setting": "[4]; _w-ac-w: wet sample slurried in 10 v/w acetone:water (20:80), 30 min room temperature, 4 °C overnight, filtered, not dried, listed as 3w-ac-w", "value": "Form A"},
      {"measurement": "Resulting Crystal Form", "setting": "[4]; _w: wet portion after crystallization, before slurry in acetone/water, listed as 3w", "value": "Form G"}
    ]},
    {"smiles": "CN(C)CCc1c[nH]c2ccc(C[C@H]3COC(=O)N3)cc12", "note": "[Sample 4]", "values": [
      {"measurement": "Resulting Crystal Form", "setting": "[4]; _w-ac-w: wet sample slurried in 10 v/w acetone:water (20:80), 30 min room temperature, 4 °C overnight, filtered, not dried, listed as 4w-ac-w", "value": "Form A"},
      {"measurement": "Resulting Crystal Form", "setting": "[4]; _w: wet portion after crystallization, before slurry in acetone/water, listed as 4w", "value": "Form A"}
    ]},
    {"smiles": "CN(C)CCc1c[nH]c2ccc(C[C@H]3COC(=O)N3)cc12", "note": "[Sample 5]", "values": [
      {"measurement": "Resulting Crystal Form", "setting": "[4]; _w-ac-w: wet sample slurried in 10 v/w acetone:water (20:80), 30 min room temperature, 4 °C overnight, filtered, not dried, listed as 5w-ac-w", "value": "Form A"},
      {"measurement": "Resulting Crystal Form", "setting": "[4]; _w: wet portion after crystallization, before slurry in acetone/water, listed as 5w", "value": "Form D"}
    ]},
    {"smiles": "CN(C)CCc1c[nH]c2ccc(C[C@H]3COC(=O)N3)cc12", "note": "[Sample 6]", "values": [
      {"measurement": "Resulting Crystal Form", "setting": "[4]; _w-ac-w: wet sample slurried in 10 v/w acetone:water (20:80), 30 min room temperature, 4 °C overnight, filtered, not dried, listed as 6w-ac-w", "value": "Form A"},
      {"measurement": "Resulting Crystal Form", "setting": "[4]; _w: wet portion after crystallization, before slurry in acetone/water, listed as 6w", "value": "Form S"}
    ]},
    {"smiles": "CN(C)CCc1c[nH]c2ccc(C[C@H]3COC(=O)N3)cc12", "note": "[Sample 7]", "values": [
      {"measurement": "Resulting Crystal Form", "setting": "[4]; _w-ac-w: wet sample slurried in 10 v/w acetone:water (20:80), 30 min room temperature, 4 °C overnight, filtered, not dried, listed as 7w-ac-w", "value": "Form K + ˜30% A"},
      {"measurement": "Resulting Crystal Form", "setting": "[4]; _w: wet portion after crystallization, before slurry in acetone/water, listed as 7w", "value": "Form K"}
    ]},
    {"smiles": "CN(C)CCc1c[nH]c2ccc(C[C@H]3COC(=O)N3)cc12", "note": "[Sample 8]", "values": [
      {"measurement": "Resulting Crystal Form", "setting": "[4]; _w-ac-w: wet sample slurried in 10 v/w acetone:water (20:80), 30 min room temperature, 4 °C overnight, filtered, not dried, listed as 8w-ac-w", "value": "Form K + ˜30% A"},
      {"measurement": "Resulting Crystal Form", "setting": "[4]; _w: wet portion after crystallization, before slurry in acetone/water, listed as 8w", "value": "Form K"}
    ]}
  ]
}
